Experiments:
Format in all cases: in vivo
corn rootworm = assay: Mite/insect screen, CRW; conditions: percent mortality; for mortality at 12 ppm / mortality at 24 ppm: read-out: CRW RESULTS %
Summary of the method: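 Compounds dissolved in 50:50 acetone/alcohol with TOXIMUL R and S emulsifiers (23 and 13 g/L), then diluted in water to the stated test concentrations. Percent mortality of corn rootworm scored after standard exposure periods.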

[1] = system: Puccinia recondita tritici (leaf rust); assay: Test 1 greenhouse foliar spray screen, leaf rust on wheat; conditions: Test 1, foliar spray on wheat, disease control rating at 400 ppm / 100 ppm; for pest or weed control at 400 ppm: Puccinia recondita, foliar
[2] = system: Pseudoperonospora cubensis (downy mildew); assay: Test 1 greenhouse foliar spray screen, downy mildew on squash; conditions: Test 1, foliar spray on squash, disease control rating at 400 ppm / 100 ppm; for pest or weed control at 400 ppm: Pseudoperonospora cubensis, foliar, read-out: DOWN MDEW
[3] = system: Pyricularia oryzae (rice blast); assay: whole plant or invertebrate; conditions: disease control rating at 400 ppm / 100 ppm; for pest or weed control at 400 ppm: Pyricularia oryzae, foliar, read-out: RICE BLAST, Test 1, foliar spray on rice
[4] = system: southern armyworm (Spodopetra eridania Cramer); assay: Mite/insect screen, SAW; conditions: percent mortality, foliar spray on squash; for mortality at 200 ppm / mortality at 400 ppm: Spodoptera eridania, foliar, read-out: SAW RESULTS %
Summary of the method: (§1)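 Compounds dissolved in acetone/alcohol (50:50) with TOXIMUL R and S emulsifiers, diluted in water to test concentrations, and sprayed to runoff on both leaf surfaces at 10 psi, then dried 1 h. For armyworm, excised treated leaves were offered to larvae; percent mortality scored after standard exposure periods.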

[5] = system: Botrytis cinerea (gray mold); assay: Test 1 greenhouse foliar spray screen, gray mold on grape berries; conditions: Test 1, spray on grape berries, disease control rating at 400 ppm / 100 ppm; for pest or weed control at 400 ppm: Botrytis cinerea, foliar
[6] = system: Twospotted spider mites (Tetranychus urticae Koch); assay: Mite/insect screen, SM; conditions: for mortality at 200 ppm / mortality at 400 ppm: Tetranychus urticae, foliar, read-out: SM RESULTS %; for mortality at 200 ppm / mortality at 400 ppm / SM RESULTS %: percent mortality, foliar spray on squash; for activity as miticides: summary statement in the description
Summary of the method: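 Compounds dissolved in 50:50 acetone/alcohol containing sulfonate/nonionic emulsifier blends, then diluted with water to the indicated concentrations. Leaves sprayed on both surfaces to runoff at 10 psi and dried one hour. Percent mortality scored after standard exposure periods.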

[7] = system: melon aphids (Aphis gossypii Glover); assay: Mite/insect screen, MA; conditions: percent mortality, foliar spray on squash; for mortality at 200 ppm / mortality at 400 ppm: Aphis gossypii, foliar, read-out: MA RESULTS %
Summary of the method: as §1

[8] = system: Erysiphe graminis tritici (powdery mildew); assay: Test 1 greenhouse foliar spray screen, powdery mildew on wheat; conditions: Test 1, foliar spray on wheat, disease control rating at 400 ppm / 100 ppm; for pest or weed control at 400 ppm: Blumeria graminis, foliar, read-out: POWD MDEW

Compound	mortality at 12 ppm (corn rootworm; CRW rate 12.00 ppm)	mortality at 24 ppm (corn rootworm; CRW rate 24.00 ppm)	pest or weed control at 400 ppm [1]	pest or weed control at 400 ppm [2]	pest or weed control at 400 ppm [3]	mortality at 200 ppm ([4]; rate 200 ppm)	mortality at 400 ppm ([4]; rate 400 ppm)	pest or weed control at 400 ppm [5]	mortality at 200 ppm ([6]; rate 200 ppm)	mortality at 400 ppm ([6]; rate 400 ppm)	mortality at 200 ppm ([7]; rate 200 ppm)	mortality at 400 ppm ([7]; rate 400 ppm)	pest or weed control at 400 ppm [8]	other results
CC(C)(C)c1ccc(CCOc2ccnc3cc(F)ccc23)cc1 [Example 232, 4-[2-(4-(t-butyl)phenyl)ethoxy]-7-fluoroquinoline]	0%	0%	0 to 19%	0 to 19%	0 to 19%	0%	30%	0 to 19%	100%	80%	70%	40%	0 to 19%	activity as miticides [6]: particularly excellent activity
Fc1cccc2c(OCCc3ccccc3-c3ccccc3)ccnc12 [Example 237, 8-fluoro-4-[2-(1,1'-biphenyl)-2-yl-ethoxy]quinoline]	0%	0%	20 to 89%	0 to 19%	90 to 100%	0%	0%	0 to 19%	0%	100%	0%	0%	90 to 100%	activity as miticides [6]: particularly excellent activity
FC(F)(F)c1ccc2c(OCCc3ccccc3)ccnc2c1 [Example 239, 4-(2-phenylethoxy)-7-(trifluoromethyl)quinoline]	0%	0%	90 to 100%	90 to 100%	90 to 100%	0%	0%	0 to 19%	0%	0%	0%	0%	90 to 100%	–
Fc1ccc(CCOc2ccnc3c(Cl)cccc23)cc1 [Example 240, 8-chloro-4-[2-(4-fluorophenyl)ethoxy]quinoline]	–	0%	90 to 100%	0 to 19%	20 to 89%	–	0%	0 to 19%	–	0%	–	0%	0 to 19%	–
CC(C)(C)c1ccc(CCCOc2ccnc3c(F)cccc23)cc1 [Example 241, 8-fluoro-4-[3-[4-(t-butyl)phenyl]propoxy]quinoline]	–	0%	0 to 19%	0 to 19%	0 to 19%	–	0%	0 to 19%	–	0%	–	0%	0 to 19%	–
Clc1ccc(CCCOc2ccnc3c(Cl)cccc23)cc1 [Example 242, 8-chloro-4-[3-(4-chlorophenyl)propoxy]quinoline]	0%	0%	0 to 19%	0 to 19%	0 to 19%	0%	0%	0 to 19%	0%	0%	0%	0%	0 to 19%	–
Fc1cccc2c(OCC=Cc3ccccc3)ccnc12 [Example 243, 8-fluoro-4-[(3-phenyl-2-propenyl)oxy]quinoline]	–	0%	0 to 19%	0 to 19%	0 to 19%	–	0%	0 to 19%	–	0%	–	0%	0 to 19%	–
Cc1cc(OCCC2CCCCC2)c2c(Cl)ccc(C)c2n1 [Example 248, 5-chloro-4-(2-cyclohexylethoxy)-2,8-dimethylquinoline]	–	0%	0 to 19%	0 to 19%	0 to 19%	–	0%	0 to 19%	–	0%	–	0%	20 to 89%	–
Cc1cc(OCCC2CCCCC2)c2cc(F)ccc2n1 [Example 249, 6-fluoro-4-(2-cyclohexylethoxy)-2-methylquinoline]	–	0%	0 to 19%	0 to 19%	0 to 19%	–	0%	0 to 19%	–	0%	–	0%	0 to 19%	–
Cc1ccc(CCOc2cc(OCCc3ccc(C)cc3)c3cccc(F)c3n2)cc1 [Example 250, 8-fluoro-2,4-bis[2-(4-methylphenyl)ethoxy]quinoline]	–	0%	20 to 89%	20 to 89%	0 to 19%	–	0%	0 to 19%	–	0%	–	0%	0 to 19%	–
FC(F)(F)c1ccc2c(CCCc3ccccc3)ccnc2c1 [Example 254, 4-(3-phenylpropyl)-7-(trifluoromethyl)quinoline]	–	0%	0 to 19%	0 to 19%	90 to 100%	–	0%	0 to 19%	–	0%	–	0%	90 to 100%	–
Clc1cccc2c(CCCc3ccccc3)ccnc12 [Example 255, 8-chloro-4-(3-phenylpropyl)quinoline]	–	0%	90 to 100%	20 to 89%	90 to 100%	–	0%	0 to 19%	–	0%	–	0%	20 to 89%	–
Fc1cccc2c(CCCc3ccc(-c4ccccc4)cc3)ccnc12 [Example 257, 4-[3-(1,1'-biphenyl)-4-ylpropyl]-8-fluoroquinoline]	–	0%	90 to 100%	90 to 100%	20 to 89%	–	0%	0 to 19%	–	0%	–	0%	90 to 100%	–
CC(C)(C)c1ccc(CCOc2ccnc3ccccc23)cc1 [Example 262, 4-[2-[4-(t-butyl)phenyl]ethoxy]quinoline]	0%	0%	90 to 100%	90 to 100%	90 to 100%	0%	0%	0 to 19%	100%	100%	100%	100%	0 to 19%	–
Fc1cccc2c(OCCc3ccc(-c4ccccc4)cc3)ccnc12 [Example 263, 8-fluoro-4-[2-(1,1'-biphenyl)-4-yl-ethoxy]quinoline]	–	–	–	–	–	–	–	–	–	–	–	–	–	CRW RESULTS % (corn rootworm; CRW rate 12.00 ppm): 0%; CRW RESULTS % (corn rootworm; CRW rate 24.00 ppm): 0%; LEAF RUST [1]: + (20-89% control at 400 ppm); DOWN MDEW [2]: - (0-19% control at 400 ppm); RICE BLAST ([3]; Test 1, foliar spray on rice): + (20-89% control at 400 ppm); SAW RESULTS % ([4]; rate 200 ppm): 0%; SAW RESULTS % ([4]; rate 400 ppm): 0%; GRAY MOLD [5]: - (0-19% control at 400 ppm); SM RESULTS % ([6]; rate 200 ppm): 0%; SM RESULTS % ([6]; rate 400 ppm): 0%; MA RESULTS % ([7]; rate 200 ppm): 0%; MA RESULTS % ([7]; rate 400 ppm): 0%; POWD MDEW [8]: + (20-89% control at 400 ppm)
